Patent US8206756B2, “Herbal composition for inflammatory disorders” (Piramal Life Sciences Limited, priority 2005, dated 2012)

Tests used:
[1] = test system: THP-1 cell adhesion to HUVECs; assay: Adhesion of THP-1 mononuclear cells to HUVEC monolayers; type: cell-based, human; settings: for Fluorescence Intensity: TNF-α 1 ng/ml; for Fold of control: unstimulated DMSO control = 1, stimulated = 18
Description: Adhesion studies were performed with the promonocytic cell line THP-1, which has been established as a useful model for monocytes in adhesion studies in Circ. Res., 97, 236-243, 2005, with modifications. THP-1 cells were washed twice with labeling medium (M200 plus LSGS). THP-1 cells (6×10^5 cells per ml) were labeled with 10 μg/ml bis-carboxyethyl-carboxyfluorescein acetoxymethylester (a fluorescent probe, BCECF-AM; Sigma) for 30 min at RT. After quenching with 0.1% BSA, the pellet was resuspended in labeling medium. To evaluate monocyte adhesion, HUVEC monolayers treated with TNF-α (1 ng/ml) in the presence or absence of various concentrations of test sample. The media was removed, washed and labeled-THP-1-cells were added to the wells (6×10^4 cells per well) and incubated for 10 minutes at RT in the dark. After co incubation, the wells were washed, filled with lysis buffer (0.1% Triton-X in 1.5 M Tris buffer) and incubated for 30 min. The fluorescence was measured using a fluorescent reader (PolarStar Optima, BMG Labtech) at an excitation peak of 485 nm and an emission peak of 520 nm. Values are means±SEM, representing fluorescent adhesion data. BAY 11-7082 [(E)-3-(4-methylphenylsulfonyl)-2-propenenitrile] was used as a standard and DMSO as vehicle control.

DSS-induced colitis = assay: DSS-induced murine model of acute colitis; type: in vivo, C57BL/6J mice; settings: 15 mg/kg injected from day 5 onwards till death
TNF-α = assay: LPS-induced TNF-α production in hPBMCs (ELISA); type: cell-based; settings: Homo sapiens, LPS 1 μg/ml, 5 h, hPBMC
Description: (§1) Primary screening—Human peripheral blood mononuclear cells (hPBMCs). TNF-α production by lipopolysaccharides (LPS) in hPBMCs was measured according to the method described by Jansky, L. et al (Physiol. Res. 52: 593-598, (2003)). Blood was collected from healthy donors into Potassium EDTA vacutainer tubes (BD vacutainer). The PBMCs were isolated using gradient centrifugation in Histopaque-1077 solution (Sigma). Isolated PBMCs were suspended in RPMI 1640 culture medium (Gibco BRL, Pasley, UK) containing 10% fetal bovine serum (FBS) (Hyclone, Utah, USA), 100 U/ml penicillin (Sigma Chemical Co. St Louis, Mo.) and 100 μg/ml streptomycin (Sigma Chemical Co. St Louis, Mo.). The cell concentration was adjusted to 1×10^6 cells/ml. The viability as determined by trypan blue dye exclusion was uniformly ≧98%. The cell suspension (100 μl) was added to the wells of a 96-well culture plate. Following cell plating, 79 μl of the culture medium and 1 μl of eight different concentrations of the test samples (final concentration 0.03, 0.1, 0.3, 1, 3, 10, 30, 100 μg/ml) dissolved in DMSO (dimethylsulfoxide, Sigma, Mo., USA) were added to the cells. The final concentration of DMSO was adjusted to 0.5%. The vehicle (0.5% DMSO) was used as control. Rolipram (100, 300 μM) was used as a standard. The plates were incubated for 30 min at 37° C. in an atmosphere of 5% CO2. Finally, 20 μl (10 μg/ml) per well of LPS, (Escherchia coli 0127:B8, Sigma Chemical Co., St. Louis, Mo.) was added, for a final concentration of 1 μg/ml. […] The % inhibition was recorded. Percent cytotoxicity of the test samples compared to control was evaluated.
The effect of the plant extract on the proinflammatory cytokines: TNF-α, interleukin-1β (IL-1β), interleukin-6 (IL-6) and interleukin-8 (IL-8) was measured using the supernatants generated in the primary screening assay. […]
The effect of the Compound 1, on the proinflammatory cytokines: TNF-α interleukin-1β (IL-1β), interleukin-6 (IL-6) and interleukin-8 (IL-8) was measured using the supernatants generated in the primary screening assay. […]

hPBMCs = assay: Cellular viability test (MTS) in hPBMCs; type: cell-based, human; settings: hPBMC
Description: as §1, with “standard.” for “standard. The plates were incubated for 30 min at 37° C. in an atmosphere of 5% CO2. Finally, 20 μl (10 μg/ml) per well of LPS, (Escherchia coli 0127:B8, Sigma Chemical Co., St. Louis, Mo.) was added, for a final concentration of 1 μg/ml.”

[2] = test system: atherosclerosis / hyperlipidemia; assay: Atherosclerosis model of high fat-fed hyperlipidemic hamsters; type: in vivo, Golden Syrian Hamsters; settings: Fenofibrate 100 mpk, extract 200 mpk
Description: The treatment effects of the extract of example 1 on prevention of aortic lesion were determined by using atherosclerosis model of high fat-fed hyperlipidemic hamster.
Details of animals used: Male Golden Syrian Hamsters, which were 7-8 weeks old and weighed approximately 100 g to 120 g, were used for the experiment. Hamsters were randomly selected for treatment group placement. Animals were earmarked using a paint marker. Animals were separated and housed in groups of three in appropriately sized solid-bottom cages. Room lighting conditions were adjusted to 12 hour light and 12 hour dark cycle. During the acclimation period the diet was Purina 5001 (Research Diets, Inc. New Brunswick, N.J., USA). A high-fat diet consisting of Purina 5001 plus 10% coconut oil, 10% corn oil, 0.5% cholesterol, and 5% fructose was administered beginning on day 1 and continued throughout the duration of study. Hamsters were provided purified tap water throughout the study.
For pretreatment lipid values, animals were bled by retro-orbital puncture following an 18-hour fast and ˜1 ml of blood was collected in a 3 ml Vacutainer® tube containing K3 EDTA. Each blood sample was centrifuged (4000 rpm, 20 min, 4° C. using an Eppendorf C5804R) and the plasma separated and was analyzed for determination of triglyceride (TG), total cholesterol, high density cholesterol (HDL) and low density cholesterol (LDL).
Preparation of dosing solution: The extract of example 1 was dissolved in vehicle [CMC (0.5%)/Tween 80 (2%)] for 200 mpk (5 ml/kg BW) dosing. The resulting solution was a fine suspension after 12-15 minutes gentle sonication. Aliquots were prepared (˜2.3 ml/vial) and stored in a freezer and were used daily.
All groups of animals were dosed orally either with vehicle or with extract of example 1 (200 mpk) for 58 days. […]
On day 58, following the 16-18 hour fasting period, animals were bled by retro-orbital puncture and ˜1 ml of blood was collected in a 3 ml Vacutainer® tube containing K3 EDTA. Each blood sample was centrifuged (4000 rpm, 20 min, 4° C. using an Eppendorf C5804R) and the plasma sample was analyzed for TG, total cholesterol, HDL and LDL.
Necropsy: On day 59, the animals were fasted for 4 h and euthanized under carbon dioxide and plasma samples were collected via cardiac puncture for lipid profiling and other analyses. […] The heart, aortic arch, thoracic and abdominal aorta up to femoral bifurcation were removed and placed in 10% formalin for en face lesion quantification.
En face analysis: Connective fascia and adventia surrounding the thoracic aorta were removed as much as possible. […] Quantitation was performed using a Nikon SMZ-U microscope with an Optronics Camera head recording the photographs. […] Quantitation was done based on percentage lesion per area.

Compound: Cc1ccc(S(=O)(=O)/C=C/C#N)cc1 [BAY 11-7082, (E)-3-(4-methylphenylsulfonyl)-2-propenenitrile, reference compound]
- Fluorescence Intensity ([1]; 0.5 μM): 18442
- Fold of control ([1]; 0.5 μM): 10
- Fluorescence Intensity ([1]; 1 μM): 14271
- Fold of control ([1]; 1 μM): 8

Compound: infliximab: Monoclonal antibody drug (Centocor), injected 15 mg/kg in the DSS colitis model
- Survival against DSS-induced colitic death (DSS-induced colitis): all animals in this group were dead

Compound: COc1ccc(C2CNC(=O)C2)cc1OC1CCCC1 (stereo not shown) [Rolipram]
- inhibition at 100 µM (TNF-α; 100 μM): 84%
- inhibition at 300 µM (TNF-α; 300 μM): 90%
- % Toxicity at 5 h (hPBMCs; 100 μM): 2%
- % Toxicity at 5 h (hPBMCs; 300 μM): 21%

Compound: CC(C)OC(=O)C(C)(C)Oc1ccc(C(=O)c2ccc(Cl)cc2)cc1 [Fenofibrate]
- Plasma triglycerides level, Mean ([2]; day 58, oral, vehicle mean 2321.3): 449.2
- Plasma triglycerides level, % Change ([2]; day 58, versus vehicle): −81%
- Atherosclerosis progression (percentage lesion per area, en face aorta), Mean ([2]; day 59, vehicle mean 0.5025): 0.0834
- Atherosclerosis progression, % Change ([2]; versus vehicle): −84%
